# From patent publication US5663335A, “Immunosuppressive compounds and methods” (priority 1996, dated 1997)
# Where two headings read alike, the source gives them in different places.
# Legend:
# [1] = tested on: murine thymocytes (IL-1β action); assay: Inhibition of IL-1 action: suppression of IL-1β + PHA stimulated thymocyte proliferation ((3H)-thymidine incorporation); assay type: cell-based, mouse (C3H/HeN); settings: IL-1β 0.08 ng/ml + PHA 10 μg/ml
# Description: The ability of the above compounds to suppress the cell-proliferative effect of IL-1β (O'Gara, 1990) was examined as described in Example 11. Mouse thymocytes in culture were stimulated with IL-1β in the presence of phytohemagglutinin (PHA) and increasing concentrations of triptolide (control) and triptolide derivatives. The cells were cultured for 72 hours, and during the last 18 hours, incubated with tritiated thymidine. DNA synthesis was assessed by measuring incorporation of radiolabeled thymidine. The results expressed in terms of IC50 (concentration effective to cause 50% suppression of proliferation) are shown in Table I.
# Inhibition of IL-1 Action on Murine Thymocytes
# C3H/HeN mouse thymocytes were prepared and the action of IL-1 together with PHA, which stimulate proliferation of thymocyte, was measured using standard techniques (O'Gara, 1990; Mishell, 1980). Three- to six-week old C3H/HeN male mice (Simonson Laboratory, Gilroy, Calif.) were sacrificed by CO2 inhalation. Thymi were removed, separated from adherent non-thymic tissue, homogenized in Hank's balanced salt solution (HBSS, Gibco) using a glass homogenizer, and centrifuged at 200×g for 10 minutes at 15° C. Following an additional wash in HBSS, the thymocytes were resuspended in RPMI 1640 medium containing 50 uM 2-mercaptoethanol, 2 mM glutamine, 1 mM sodium pyruvate, non-essential amino acids 100 U/ml penicillin, 100 μg/ml streptomycin, and 10% heat-inactivated fetal bovine serum.
# Cells were cultured in round-bottom 96 well microtiter tissue culture plates, 6×10^5 cells per well, in a volume of 100 μl. Recombinant human IL-1β(R & D Systems #201-LB) together with Phytohemagglutinin P (PHA, Pharmacia) were added to the cells in volume of 25 μl per well to achieve a final concentration of 0.08 ng/ml and 10 μg/ml, respectively. Samples were dissolved in DMSO (10 mg/ml), then diluted in culture medium. […]
# Plates were incubated at 37° C. in a 5% CO2 incubator for 72 hours. […] Cells were then harvested and counted. […]
# [2] = Cytotoxicity by MTT assay, reported with the IL-1 assay (Table I); assay type: cell-based; settings: mouse, thymocytes, cytotoxic when toxicity greater than 25%
# Description: (§1) Potential cytotoxicity of the test samples was assessed by the measurement of their effect on the reduction of MTT (3-[4,5-Dimethylthiazole-2-yl]-2,5-diphenyltetrazolium bromide) by cultured cells. MTT, a yellow-colored compound, is reduced by mitochondrial enzymes to form the purple crystalline reduction product formazane, providing an index of cellular respiration on viable cells as well as a sensitive assay for cytotoxicity (Mossmann, 1983).
# (§2) The cytotoxicity was assessed in cultured human PBMC and mouse thymocytes. A stock solution of MTT (Sigma) at 5 mg/ml in phosphate buffered saline, pH 7.4, was prepared and stored in the dark at 4° C. PBMCs or thymocytes were cultured with various concentrations of test samples in flatbottom 96-well tissue culture plates (Costar) under the same conditions as those described above, but the stimulants (X-35 or IL-1+PHA) were replaced by appropriate medium. Untreated cells with medium alone and without the test samples were used as controls. After incubation for 21 hours, 25 μl of MTT solution was added to each well. After an additional three hours of incubation, the experiment was terminated by addition of a solution of 10% sodium dodecyl sulfate in 0.01N HCl. Following overnight incubation at 37° C. to solubilize the formazane crystals, optical density was determined at 570-650 nm in microplate reader. […]
# [3] = Cytotoxicity by MTT assay, reported with the MLR assay (Table II); assay type: cell-based; settings: pbmc and thymocytes, cytotoxic when toxicity greater than 25%
# Description: as §1, §2
# [4] = Stability in blood serum (TLC); assay type: in vitro ADME; settings: rat serum, 37° C
# Description: The stability of triptolide succinate in blood serum was determined as detailed in Example 10B. In this study, a solution of triptolide succinate (YM-262, free acid) in DMSO was mixed with rat serum and incubated at 37° C. The mixture was assayed periodically by thin layer chromatography (TLC) to follow the hydrolysis of the triptolide succinate over time.
# A solution of triptolide succinate (free acid; YM-262) in DMSO was made at a concentration of 25 mg/ml, and 0.1 ml of this solution was mixed with 0.5 ml of rat serum. The mixture was incubated at 37° C. Aliquots of the mixture were taken at 1, 3, 5, 15, 45 minutes and 18 hours and analyzed by thin layer chromatography (TLC). The TLC plates were developed in 1:5 CH2 CI2 /Et2 O. After development, the plates were treated with iodine vapor and examined under a UV lamp. Triptolide and triptolide succinate were used as reference compounds (Rf =0.60), and 0.45, respectively).
structure (smiles),measurement,setting,value
"CC(C)[C@]12O[C@H]1[C@@H]1O[C@]13[C@]1(O[C@H]1C[C@H]1C4=C(CC[C@@]13C)C(=O)OC4)[C@@H]2O [Triptolide, triptolide]",IC50,"[1]; 72 hours, read-out: IC50, IL-1 assay",~5 nM
same,IC50,"[1]; Mus musculus, Thymocyte, 72 h, read-out: IC50 (concentration effective to cause 50% suppression of proliferation), IL-1 assay",1.9 ng/mL
same,IC50,"[1]; Mus musculus, Thymocyte, 72 h, read-out: IC50, IL-1 assay",5.3 nM
same,MCC,[2],> 12.5 µg/mL
same,MCC,[3],0.0133 µg/mL
same,"triptolide spot, 15 minutes (formed from triptolide succinate)",[4]; 15 minutes,a new spot corresponding to triptolide had appeared
same,"triptolide spot, 45 minutes (formed from triptolide succinate)",[4]; 45 minutes,the triptolide spot had also disappeared
